Test results taken from patent US20250171465A1, “AKT INHIBITORS” (Stablix, Inc., priority 2023, published 2025).

Legend:
Type in all cases: cell-based
KU1919.1 = assay: Cell Titer Glo (CTG) proliferation assay, KU1919; conditions: Homo sapiens, KU-19-19; KU1919.1 cells, 72.0 hrs.; read-out: AVE CTG Proliferation KU1919.1 72.0 hrs.
In short: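 After overnight seeding at 37 °C, 5% CO2, cells were exposed to compound for 3 days. Viability read by CellTiter-Glo luminescence after 30 min at room temperature.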

MDAMB231.1 = assay: Cell Titer Glo (CTG) proliferation assay, MDA-MB-231; conditions: Homo sapiens, MDA-MB-231; MDAMB231.1 cells, 72 hrs.; read-out: AVE CTG Proliferation MDAMB231.1 72 hrs.
Description: (§1) Seed cells in 40 μL of cell culture media into each well of 384-well cell culture plate, spin them at room temperature at 1,000 RPM for 1 minute and then transfer the plates into 37° C. 5% CO2 incubator overnight. Next day, treat cells with 40 nL of diluted compound and return to incubator. After compound treatment for 3 days, Add 30 μL of CellTiter-Glo reagent (Promega) into each well to be detected. Then place the plates at room temperature for 30 min followed by reading on EnVision. Inhibition activity calculated as % DMSO=100×(LumSample-Lum low control)/(Lum high control-Lum low control) where high control is from cells treated with 0.1% DMSO and Low control obtained from PBS only. Use XLFit (equation 201) to calculate IC50 (A+ ((B−A)/(1[…]((x/C)^D)))) where A: Bottom, B: Top, C: IC50, D: Slope.

MDAMB468.1 = assay: Cell Titer Glo (CTG) proliferation assay, MDA-MB-468; conditions: Homo sapiens, MDA-MB-468; MDAMB468.1 cells, 72.0 hrs.; read-out: AVE CTG Proliferation MDAMB468.1 72.0 hrs.
Description: as §1

With `NC1(C(=O)N[C@@H](CCN2CCC(OC3CCN(C(=O)[C@H](NC(=O)c4cccc(C5CCCN(C(=O)CNC6CC6)C5)c4F)C4CCCCC4)CC3)CC2)c2ccc(Cl)cc2)CCN(c2ncnc3[nH]ccc23)CC1` (stereo partly drawn) [Compound I-283] the IC50 (KU1919.1) was 1 to 5 µM, the IC50 (MDAMB231.1) was 1 to 5 µM and the IC50 (MDAMB468.1) was 1 to 5 µM.

In the case of `CCOc1cc(OC)ccc1CNCC(=O)N1CCC[C@H](c2cccc(C(=O)N[C@@H](C(=O)N3CCN(CC4CCN(CC(C(=O)N5CCN(c6ncnc7c6[C@H](C)C[C@H]7O)CC5)c5ccc(Cl)cc5)CC4)CC3)C3CCCCC3)c2)C1` (stereo partly drawn) [Compound I-219], the IC50 (KU1919.1) is reported as 0.5 to 1 µM, the IC50 (MDAMB231.1) is reported as 1 to 5 µM and the IC50 (MDAMB468.1) is reported as 1 to 5 µM.

In the case of `NC1(C(=O)N[C@@H](CCN2CCN(C(=O)CN3CCC(OC4CCN(C(=O)[C@H](NC(=O)c5cc(C6CN(C(=O)CNCc7ccc(F)cc7F)C6)ccc5F)C5CCCCC5)CC4)CC3)CC2)c2ccc(Cl)cc2)CCN(c2ncnc3[nH]ccc23)CC1` [Compound I-226], the IC50 (KU1919.1) is reported as 0.5 to 1 µM, the IC50 (MDAMB231.1) is reported as 1 to 5 µM and the IC50 (MDAMB468.1) is reported as 1 to 5 µM.

Work on `C[C@@H]1C[C@@H](O)c2ncnc(N3CCN(C(=O)[C@H](CNCCNC(=O)CN4CCC(OC5CCN(C(=O)[C@H](NC(=O)c6cccc(C7CCCN(C(=O)CNCc8ccc(F)cc8F)C7)c6)C6CCCCC6)CC5)CC4)c4ccc(Cl)cc4)CC3)c21` (stereo partly drawn) [Compound I-208] yielded an IC50 (KU1919.1) of 1 to 5 µM, an IC50 (MDAMB231.1) of 1 to 5 µM and an IC50 (MDAMB468.1) of 1 to 5 µM.

For `C[C@@H]1C[C@@H](O)c2ncnc(N3CCN(C(=O)[C@H](CNCCNC(=O)CN4CCC(OC5CCN(C(=O)[C@H](NC(=O)c6cccc(C7CCCN(C(=O)CNC8CC8)C7)c6)C6CCCCC6)CC5)CC4)c4ccc(Cl)cc4)CC3)c21` (stereo partly drawn) [Compound I-209], the IC50 (KU1919.1) was 5 to 10 µM, the IC50 (MDAMB231.1) was 5 to 10 µM and the IC50 (MDAMB468.1) was 5 to 10 µM.

`CC(C)(C)OC(=O)N[C@@H](C(=O)N1CCN(CC2CCN(CC(=O)N3CCN(CC[C@H](NC(=O)C4(N)CCN(c5ncnc6[nH]ccc56)CC4)c4ccc(Cl)cc4)CC3)CC2)CC1)C1CCCCC1` [Compound I-310] gave an IC50 (KU1919.1) of 1 to 5 µM, an IC50 (MDAMB231.1) of 5 to 10 µM and an IC50 (MDAMB468.1) of 1 to 5 µM.

`C[C@@H]1C[C@@H](O)c2ncnc(N3CCN(C(=O)[C@H](CNCCNC(=O)CN4CCC(CN5CCN(C(=O)[C@H](NC(=O)c6cccc(C7CCCN(C(=O)CNCc8ccc(F)cc8F)C7)c6)C6CCCCC6)CC5)CC4)c4ccc(Cl)cc4)CC3)c21` (stereo partly drawn) [Compound I-204] showed an IC50 (KU1919.1) of 1 to 5 µM, an IC50 (MDAMB231.1) of 1 to 5 µM and an IC50 (MDAMB468.1) of 1 to 5 µM.

`CCc1cccc(-c2cc(F)c(C(=O)N3CCN(CC4CCN(CC(C(=O)N5CCN(c6ncnc7c6[C@H](C)C[C@H]7O)CC5)c5ccc(Cl)cc5)CC4)CC3)c(F)c2)c1` (stereo partly drawn) [Compound I-262] showed an IC50 (KU1919.1) of 0.5 to 1 µM, an IC50 (MDAMB231.1) of 1 to 5 µM and an IC50 (MDAMB468.1) of 1 to 5 µM.

`C[C@@H]1C[C@@H](O)c2ncnc(N3CCN(C(=O)C(CN4CCC(CN5CCN(C(=O)[C@H](NC(=O)c6cccc([C@H]7CCCN(C(=O)CNCc8ccc(F)cc8F)C7)c6)C6CCCCC6)CC5)CC4)c4ccc(Cl)cc4)CC3)c21` (stereo partly drawn) [Compound I-201] showed an IC50 (KU1919.1) of 0.5 to 1 µM, an IC50 (MDAMB231.1) of 1 to 5 µM and an IC50 (MDAMB468.1) of 1 to 5 µM.

For `C[C@@H]1C[C@@H](O)c2ncnc(N3CCN(C(=O)C(CN4CCC(CN5CCN(C(=O)[C@H](NC(=O)c6cccc([C@H]7CCCN(C(=O)C8CC8)C7)c6F)C6CCCCC6)CC5)CC4)c4ccc(Cl)cc4)CC3)c21` (stereo partly drawn) [Compound I-277], the IC50 (KU1919.1) was less than 0.5 µM, the IC50 (MDAMB231.1) was less than 0.5 µM and the IC50 (MDAMB468.1) was less than 0.5 µM.

`NC1(C(=O)N[C@@H](CCN2CCN(C(=O)CN3CCC(OC4CCN(C(=O)[C@H](NC(=O)c5cc(C6CCCN(C(=O)C7CC7)C6)ccc5F)C5CCCCC5)CC4)CC3)CC2)c2ccc(Cl)cc2)CCN(c2ncnc3[nH]ccc23)CC1` (stereo partly drawn) [Compound I-224] gave an IC50 (KU1919.1) of 1 to 5 µM, an IC50 (MDAMB231.1) of 1 to 5 µM and an IC50 (MDAMB468.1) of 1 to 5 µM.

In the case of `NC1(C(=O)N[C@@H](CCN2CCN(C(=O)CN3CCC(OC4CCN(C(=O)[C@H](NC(=O)c5cccc(C6CCCN(C(=O)CNCc7ccc(F)cc7F)C6)c5)C5CCCCC5)CC4)CC3)CC2)c2ccc(Cl)cc2)CCN(c2ncnc3[nH]ccc23)CC1` (stereo partly drawn) [Compound I-258], the IC50 (KU1919.1) is reported as 0.5 to 1 µM, the IC50 (MDAMB231.1) is reported as 1 to 5 µM and the IC50 (MDAMB468.1) is reported as 1 to 5 µM.

For `NC1(C(=O)N[C@@H](CCN2CCC(OC3CCN(C(=O)c4cccc(C5CCCN(C(=O)C6CC6)C5)c4)CC3)CC2)c2ccc(Cl)cc2)CCN(c2ncnc3[nH]ccc23)CC1` (stereo partly drawn) [Compound I-248], the IC50 (KU1919.1) was 1 to 5 µM, the IC50 (MDAMB231.1) was 5 to 10 µM and the IC50 (MDAMB468.1) was 5 to 10 µM.

`CCOc1cc(OC)ccc1CNCC(=O)N1CCCC(c2cccc(C(=O)N[C@@H](C(=O)N3CCN(CC4CCN(CC(=O)NCCNC[C@@H](C(=O)N5CCN(c6ncnc7c6[C@H](C)C[C@H]7O)CC5)c5ccc(Cl)cc5)CC4)CC3)C3CCCCC3)c2)C1` (stereo partly drawn) [Compound I-17] showed an IC50 (KU1919.1) of 1 to 5 µM, an IC50 (MDAMB231.1) of 1 to 5 µM and an IC50 (MDAMB468.1) of 1 to 5 µM.

Molecule `NC1(C(=O)N[C@@H](CCN2CCN(C(=O)CN3CCC(OC4CCN(C(=O)[C@H](NC(=O)c5ccc(C6CN(C(=O)CNCc7ccc(F)cc7F)C6)cc5)C5CCCCC5)CC4)CC3)CC2)c2ccc(Cl)cc2)CCN(c2ncnc3[nH]ccc23)CC1` [Compound I-230] has an IC50 (KU1919.1) of 1 to 5 µM, an IC50 (MDAMB231.1) of 1 to 5 µM and an IC50 (MDAMB468.1) of 1 to 5 µM.

In the case of `CCc1cccc(-c2cnc(C(=O)N3CCN(CC4CCN(CC(=O)NCCNC[C@@H](C(=O)N5CCN(c6ncnc7c6[C@H](C)C[C@H]7O)CC5)c5ccc(Cl)cc5)CC4)CC3)c(N)c2)c1` [Compound I-213], the IC50 (KU1919.1) is reported as 1 to 5 µM, the IC50 (MDAMB231.1) is reported as 1 to 5 µM and the IC50 (MDAMB468.1) is reported as 1 to 5 µM.

For `N[C@@H](C(=O)N1CCC(OC2CCN(CC(=O)N3CCN(CC[C@H](NC(=O)C4(N)CCN(c5ncnc6[nH]ccc56)CC4)c4ccc(Cl)cc4)CC3)CC2)CC1)C1CCCCC1` [Compound I-235], the IC50 (KU1919.1) was greater than 10 µM, the IC50 (MDAMB231.1) was greater than 10 µM and the IC50 (MDAMB468.1) was greater than 10 µM.
